This is an account of results in patent publication US9796716B2, “Selective inhibitors of Tec and Src protein kinase families” (Pharmascience, Inc., priority 2012, dated 2017).

In assay [1] the test system is Splenocytes (B cell proliferation stimulated with anti-IgM F(ab′)2). In words: Splenic Cell Proliferation Assay. Type of assay: cell-based. As to conditions: Mus musculus, Splenocyte, 72 h, CD1 mouse splenocytes, 2.5 ug/ml anti-IgM F(ab′)2 for 72 h, Cell Titer-Glo; read-out: EC50 (nM), Inhibition of splenic cell proliferation. The method in brief: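 Splenocytes from 6-week male CD1 mice, adherent cells removed, seeded at 50,000 cells/well and pre-treated 1 h with compound curves (top 10,000 nM). Stimulated with 2.5 ug/ml anti-IgM F(ab′)2 for 72 h; proliferation by CellTiter-Glo luminescence, EC50 relative to vehicle controls.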

The next assay has as its system Balb/c mice. Kind of assay: Mouse Arthus. The following applies: oral gavage at 30 mg/kg, 1 h pre-treatment. Type of assay: in vivo. The protocol: Mouse Arthus studies were conducted as reported in Braselmann S, Taylor V, Zhao H, Wang S, Sylvain C, Baluom M, Qu K, Herlaar E, Lau A, Young C, Wong B R, Lovell S, Sun T, Park G, Argade A, Jurcevic S, Pine P, Singh R, Grossbard E B, Payan D G, Masuda E S: R406 an orally available spleen tyrosine kinase inhibitor blocks fc receptor signaling and reduces immune-complex mediated inflammation. J Pharmacol Exp Ther, 2006, 319:998-1008.
In summary, female Balb/c mice (6-7 weeks on arrival) were habituated to the animal facility for at least 4 days. On the day of the experiment, animals were pre-treated (t=minus 1 h) with compound or vehicle alone by gavage (PO). At t=0, animals were injected intravenously (IV; 0.1 mL/mouse) with saline containing chicken ovalbumin and Evan's blue (10 mg/mL of each). Ten minutes later (t=10 min), animals were anesthesized with isoflurane, the dorsal surface was shaved and rabbit anti-chicken ovalbumin antibody was then injected intradermally at one site on the right side of the animal (25 μg in 30 μL). The same amount of isotype control antibody was then injected on the left side.
The animals were then returned to their home cage and skin punches (8 mm) were collected from each injection site four hours later. The samples were placed in 1 mL formamide overnight at 80 degrees C. (1 skin biopsy per 1 mL formamide in a glass tube). The amount of Evan's blue in the formamide solution was then assessed by spectrophotometry (630 nm) as a measure of serum extravasation into the dermis.

For assay [2], the target named is recombinant human full-length Bruton Agammaglobulinemia Tyrosine Kinase (Btk) (Homo sapiens (Human), UniProt Q06187). In words: Btk Kinase Inhibition Assay (fluorescence polarization). Type of assay: biochemical. The following applies: 10 μM ATP, 250 μM substrate, 60 minutes; Ki calculated from IC50 using the Cheng-Prusoff equation. The method in brief:
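His-tagged full-length enzyme reacted 60 min at room temperature with 250 μM substrate, 10 μM ATP and compound dilutions; stopped with EDTA/detection reagents, read by fluorescence polarization. IC50 from nonlinear fit, converted to Ki via Cheng-Prusoff using experimentally determined ATP Km.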

A further assay deals with B10R111 mice. Kind of assay: Mouse CIA model. Type of assay: in vivo. The following applies: oral gavage at 30 mg/kg (BID). How it is done: Mouse CIA model was performed using the methods described by Trentham D E, Townes A S, Kang A H. Autoimmunity to Type II Collagen: An Experimental Model of Arthritis. J Exp Med 1977; 857-868, and Bendele A M. Animal Models of Rheumatoid Arthritis. J Musculoskel Interact 2001; 377-385.
In summary, male B10R111 mice (7-9 wks on arrival) were habituated to the animal facility for at least 4 days. On experimental day 0 mice were anaesthetized with isoflurane and the dorsal surface was shaved. Collagen, emulsified in Freund's complete adjuvant (CFA) supplemented with additional mycobacterium tuberculosis (TB) H37Ra, was injected intradermally at the base of the tail (0.15 mL/animal; 2 mg/mL collagen and 2.5 mg/mL TB in CFA). This CFA treatment was repeated on day 15.
From day 15 to the end of the study animals were scored daily for signs of arthritis. On the first day of disease (RA Day 1) animals were recruited to the study and grouped using a balanced design based on arthritis score. Once recruited, animals were weighed and dosed twice daily by gavage (PO, BID). Recruited animals were then scored twice a week on RA days 1, 5, 8 and 12. At the end of the study (RA day 12) animals were weighed and scored.

recombinant human full-length Bruton Agammaglobulinemia Tyrosine Kinase (Btk), sequence (Q06187 whole entry): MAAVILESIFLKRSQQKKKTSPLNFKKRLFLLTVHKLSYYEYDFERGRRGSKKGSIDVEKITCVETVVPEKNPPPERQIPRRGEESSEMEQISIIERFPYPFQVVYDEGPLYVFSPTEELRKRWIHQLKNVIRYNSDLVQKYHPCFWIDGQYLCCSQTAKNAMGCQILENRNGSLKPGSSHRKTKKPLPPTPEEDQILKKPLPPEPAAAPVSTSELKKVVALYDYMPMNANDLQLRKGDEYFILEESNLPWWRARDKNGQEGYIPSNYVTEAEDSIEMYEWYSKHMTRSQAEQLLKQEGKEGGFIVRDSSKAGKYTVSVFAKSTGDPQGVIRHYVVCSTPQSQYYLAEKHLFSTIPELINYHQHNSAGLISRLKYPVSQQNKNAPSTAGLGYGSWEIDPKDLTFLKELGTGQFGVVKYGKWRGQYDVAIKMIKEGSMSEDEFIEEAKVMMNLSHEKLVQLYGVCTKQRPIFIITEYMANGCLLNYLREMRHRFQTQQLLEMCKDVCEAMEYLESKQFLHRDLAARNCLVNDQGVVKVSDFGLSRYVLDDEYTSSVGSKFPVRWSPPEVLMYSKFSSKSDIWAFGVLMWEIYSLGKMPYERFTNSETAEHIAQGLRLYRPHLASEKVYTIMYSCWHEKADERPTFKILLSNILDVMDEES

Regarding `Cc1ccc(COc2cc(F)cc(Oc3ccc(-c4nn(C(C)C)c5ncnc(N)c45)cc3)c2)cn1` [Compound 85], the EC50 in assay [1] was less than 100 nM. Also, the “efficacy in mouse Arthus (Evan's blue extravasation)” value (“efficacy in mouse Arthus” for short) in the assay on Balb/c mice is given as “demonstrated efficacy”. Besides, the Ki in assay [2] is less than 100 nM. Also, the “efficacy in mouse CIA model (arthritis score)” value (“efficacy in mouse CIA model” for short) in the assay on B10R111 mice is listed as “demonstrated efficacy”.

Consider `Cc1ncc(COc2cc(F)cc(Oc3ccc(-c4nn(C(C)C)c5ncnc(N)c45)cc3)c2)cn1` [Compound 102], for which the EC50 in assay [1] is less than 100 nM. Moreover, the “efficacy in mouse Arthus” value in the assay with Balb/c mice is on record as “demonstrated efficacy”. For the same molecule, in assay [2], the Ki was less than 100 nM. Further, the “efficacy in mouse CIA model” value with B10R111 mice was “demonstrated efficacy”.

`Cc1ncc(COc2cc(F)cc(Oc3ccc(-c4nn(C(C)C)c5ncnc(N)c45)cc3)c2)s1` [Compound 78]: in assay [1], the EC50 was less than 100 nM. Also, the “efficacy in mouse Arthus” value in the assay with Balb/c mice was “demonstrated efficacy”. For the same molecule, the Ki in assay [2] is less than 100 nM. For the same molecule, the “efficacy in mouse CIA model” value in the assay with B10R111 mice is listed as “demonstrated efficacy”.

As to `Nc1ncnc2c1c(-c1ccc(Oc3cccc(OCc4cncs4)c3)cc1)nn2C1CCCC1` [Compound 14], in assay [1], the EC50 was less than 100 nM. The “efficacy in mouse Arthus” value with Balb/c mice is “demonstrated efficacy”. In addition, in assay [2], the Ki is less than 100 nM. Also, the “efficacy in mouse CIA model” value in the assay on B10R111 mice was “demonstrated efficacy”.

As for `Cc1ncc(COc2cc(F)cc(Oc3ccc(-c4nn(C5CCCC5)c5ncnc(N)c45)cc3)c2)s1` [Compound 58], in assay [1], the EC50 is less than 100 nM. Moreover, the “efficacy in mouse Arthus” value in the assay with Balb/c mice is on record as “demonstrated efficacy”. Moreover, the Ki in assay [2] is less than 100 nM. Moreover, in the assay with B10R111 mice, the “efficacy in mouse CIA model” value was “demonstrated efficacy”.

Take `Cc1ncc(COc2cc(F)cc(Oc3ccc(-c4nn(C5CCOCC5)c5ncnc(N)c45)cc3)c2)cn1` [Compound 106]: the EC50 in assay [1] is less than 100 nM. In the assay on Balb/c mice, the “efficacy in mouse Arthus” value is listed as “demonstrated efficacy”. Also, in assay [2], the Ki was less than 100 nM.

Consider `Nc1ncnc2c1c(-c1ccc(Oc3cc(F)cc(OCc4cncs4)c3)cc1)nn2C1CCCC1` [Compound 50], for which, in assay [1], the EC50 is less than 100 nM. Also, the “efficacy in mouse Arthus” value in the assay on Balb/c mice is “demonstrated efficacy”. Moreover, the Ki in assay [2] is less than 100 nM.
